Data from ChEMBL document CHEMBL5150076, “Discovery of Novel Orally Bioavailable Triazoles with Potent and Broad-Spectrum Antifungal Activity In Vitro and In Vivo” (J Med Chem, 2022).
≈ marks a conversion by molar mass, not a printed value. One block for each compound: values may come before it.

Key:
Cryptococcus neoformans [1] = assay: Antifungal activity against Cryptococcus neoformans H99 incubated for 72 hrs by microbroth dilution method; assay type: functional
Aspergillus fumigatus = assay: Antifungal activity against Aspergillus fumigatus 7544 incubated for 48 hrs by microbroth dilution method; assay type: functional
Candida albicans [2] = assay: Antifungal activity against Candida albicans SC5314 incubated for 24 hrs by microbroth dilution method; assay type: functional
Trichophyton rubrum = assay: Antifungal activity against Trichophyton rubrum cmccftla; assay type: functional
Candida albicans [3] = assay: Antifungal activity against Candida albicans Y0109; assay type: functional
Cryptococcus neoformans [4] = assay: Antifungal activity against Cryptococcus neoformans 32605; assay type: functional
Nakaseomyces glabratus [5] = assay: Antifungal activity against Candida glabrata 537; assay type: functional
Nannizzia gypsea = assay: Antifungal activity against Microsporum gypseum; assay type: functional
Candida parapsilosis [6] = assay: Antifungal activity against Candida parapsilosis 22019; assay type: functional; details: Lodderomyces parapsilosis
Pichia kudriavzevii [7] = assay: Antifungal activity against Candida krusei 463; assay type: functional
Candida parapsilosis [8] = assay: Antifungal activity against Candida parapsilosis 700; assay type: functional; details: Lodderomyces parapsilosis
[Candida] auris [9] = Antifungal activity against Candida auris BS12372; assay type: functional; details: Candidozyma auris
Candida parapsilosis [10] = assay: Antifungal activity against Candida parapsilosis 660; assay type: functional; details: Lodderomyces parapsilosis
[Candida] auris [11] = Antifungal activity against Candida auris 887; assay type: functional; details: Candidozyma auris
in vitro = details: human, Caco-2 cells; at 64 µg/mL
Candida albicans [12] = assay: Antifungal activity against Candida albicans 20#; assay type: functional
[13] = Cytotoxicity against HUVEC assessed as cell viability at 64 ug/ml incubated for 24 hrs by CCK-8 assay; assay type: toxicity, cell-based; details: human, HUVEC cells, at 64 µg/mL, read-out: Activity
Candida parapsilosis [14] = assay: Antifungal activity against Candida parapsilosis 90018; assay type: functional; details: Lodderomyces parapsilosis
Candida albicans [15] = assay: Antifungal activity against Candida albicans 14#; assay type: functional
Candida tropicalis [16] = assay: Antifungal activity against Candida tropicalis ATCC750; assay type: functional
[Candida] auris [17] = Antifungal activity against Candida auris 791; assay type: functional; details: Candidozyma auris
[Candida] auris [18] = Antifungal activity against Candida auris D12; assay type: functional; details: Candidozyma auris
Candida albicans [19] = assay: Antifungal activity against Candida albicans 162; assay type: functional
Pichia kudriavzevii [20] = assay: Antifungal activity against Candida krusei 397; assay type: functional
Candida albicans [21] = assay: Antifungal activity against Candida albicans 28#; assay type: functional
Candida tropicalis [22] = assay: Antifungal activity against Candida tropicalis 112936; assay type: functional
Candida albicans [23] = assay: Antifungal activity against Candida albicans 305; assay type: functional
Pichia kudriavzevii [24] = assay: Antifungal activity against Candida krusei 629; assay type: functional
Candida albicans [25] = assay: Antifungal activity against Candida albicans 25#; assay type: functional
Candida albicans [26] = assay: Antifungal activity against Candida albicans 12#; assay type: functional
Nakaseomyces glabratus [27] = assay: Antifungal activity against Candida glabrata ATCC2001; assay type: functional
Pichia kudriavzevii [28] = assay: Antifungal activity against Candida krusei 467; assay type: functional

- MIC (Cryptococcus neoformans [1]): 0.0625 µg/mL (≈ 0.135 µM)
- MIC (Aspergillus fumigatus): 16 µg/mL (≈ 34.5 µM)
- MIC (Candida albicans [2]): 0.0625 µg/mL (≈ 0.135 µM)
SMILES: C[C@@H](c1cn(-c2ccc(C(F)(F)F)cc2)nn1)[C@](O)(Cn1cncn1)c1ccc(F)cc1F

- MIC (Cryptococcus neoformans [1]): 0.0625 µg/mL (≈ 0.151 µM)
- MIC (Aspergillus fumigatus): 2 µg/mL (≈ 4.83 µM)
- MIC (Candida albicans [2]): 0.0625 µg/mL (≈ 0.151 µM)
SMILES: C[C@@H](c1cn(-c2ccccc2F)nn1)[C@](O)(Cn1cncn1)c1ccc(F)cc1F

- MIC (Cryptococcus neoformans [1]): 0.0625 µg/mL (≈ 0.12 µM)
- MIC (Aspergillus fumigatus): > 64 µg/mL
- MIC (Candida albicans [2]): 0.125 µg/mL (≈ 0.24 µM)
SMILES: C[C@@H](c1cn(-c2ccc(OCc3ccc(F)cc3)cc2)nn1)[C@](O)(Cn1cncn1)c1ccc(F)cc1F

- MIC (Cryptococcus neoformans [1]): 0.125 µg/mL (≈ 0.302 µM)
- MIC (Aspergillus fumigatus): 16 µg/mL (≈ 38.6 µM)
- MIC (Candida albicans [2]): 0.0625 µg/mL (≈ 0.151 µM)
SMILES: C[C@@H](c1cn(-c2cccc(F)c2)nn1)[C@](O)(Cn1cncn1)c1ccc(F)cc1F

- MIC (Cryptococcus neoformans [1]): 2 µg/mL (≈ 4.85 µM)
- MIC (Aspergillus fumigatus): > 64 µg/mL
- MIC (Candida albicans [2]): 3 µg/mL (≈ 7.27 µM)
SMILES: C[C@@H](c1cn(-c2ccc(O)cc2)nn1)[C@](O)(Cn1cncn1)c1ccc(F)cc1F

- MIC (Cryptococcus neoformans [1]): 0.0625 µg/mL (≈ 0.126 µM)
- MIC (Aspergillus fumigatus): 2 µg/mL (≈ 4.04 µM)
- MIC (Candida albicans [2]): 0.0313 µg/mL (≈ 0.0632 µM)
SMILES: C[C@@H](c1cn(-c2ccc(OCC(F)(F)F)nc2)nn1)[C@](O)(Cn1cncn1)c1ccc(F)cc1F

- MIC (Cryptococcus neoformans [1]): 0.125 µg/mL (≈ 0.253 µM)
- MIC (Aspergillus fumigatus): 2 µg/mL (≈ 4.05 µM)
- MIC (Candida albicans [2]): 0.0313 µg/mL (≈ 0.0633 µM)
SMILES: C[C@@H](c1cn(-c2ccc(OCC(F)(F)F)cc2)nn1)[C@](O)(Cn1cncn1)c1ccc(F)cc1F

- MIC (Cryptococcus neoformans [1]): 0.0625 µg/mL (≈ 0.115 µM)
- MIC (Aspergillus fumigatus): 8 µg/mL (≈ 14.7 µM)
SMILES: C[C@@H](c1cn(-c2ccc(OCC(F)(F)C(F)(F)F)cc2)nn1)[C@](O)(Cn1cncn1)c1ccc(F)cc1F

- MIC (Cryptococcus neoformans [1]): 0.125 µg/mL (≈ 0.219 µM)
- MIC (Aspergillus fumigatus): 16 µg/mL (≈ 28 µM)
- MIC (Candida albicans [2]): 1 µg/mL (≈ 1.75 µM)
SMILES: C[C@@H](c1cn(-c2ccc(OCc3ccc(C(F)(F)F)cc3)cc2)nn1)[C@](O)(Cn1cncn1)c1ccc(F)cc1F

- MIC (Cryptococcus neoformans [1]): 0.0625 µg/mL (≈ 0.151 µM)
- MIC (Aspergillus fumigatus): 4 µg/mL (≈ 9.65 µM)
- MIC (Candida albicans [2]): 0.0625 µg/mL (≈ 0.151 µM)
SMILES: C[C@@H](c1cn(-c2ccc(F)cc2)nn1)[C@](O)(Cn1cncn1)c1ccc(F)cc1F

- MIC (Cryptococcus neoformans [1]): 0.0625 µg/mL (≈ 0.126 µM)
- MIC (Aspergillus fumigatus): 8 µg/mL (≈ 16.1 µM)
- MIC (Candida albicans [2]): 0.125 µg/mL (≈ 0.252 µM)
SMILES: CCCCCCOc1ccc(-n2cc([C@H](C)[C@](O)(Cn3cncn3)c3ccc(F)cc3F)nn2)cc1

- MIC (Cryptococcus neoformans [1]): 0.25 µg/mL (≈ 0.566 µM)
- MIC (Aspergillus fumigatus): > 64 µg/mL
SMILES: C[C@@H](c1cn(-c2ccc([N+](=O)[O-])cc2)nn1)[C@](O)(Cn1cncn1)c1ccc(F)cc1F

- MIC (Trichophyton rubrum): 0.125 µg/mL (≈ 0.289 µM)
- MIC (Candida albicans [3]): 0.0625 µg/mL (≈ 0.145 µM)
- MIC (Cryptococcus neoformans [4]): 0.0313 µg/mL (≈ 0.0724 µM)
- MIC (Cryptococcus neoformans [1]): 0.0625 µg/mL (≈ 0.145 µM)
- MIC (Aspergillus fumigatus): 2 µg/mL (≈ 4.63 µM)
- MIC (Nakaseomyces glabratus [5]): 0.0313 µg/mL (≈ 0.0724 µM)
- MIC (Candida albicans [2]): 0.0625 µg/mL (≈ 0.145 µM)
- MIC (Nannizzia gypsea): 2 µg/mL (≈ 4.63 µM)
- MIC (Candida parapsilosis [6]): 0.0313 µg/mL (≈ 0.0724 µM)
SMILES: C[C@@H](c1cn(-c2ccc(F)cc2F)nn1)[C@](O)(Cn1cncn1)c1ccc(F)cc1F

- MIC (Cryptococcus neoformans [1]): 0.125 µg/mL (≈ 0.263 µM)
- MIC (Aspergillus fumigatus): 8 µg/mL (≈ 16.8 µM)
- MIC (Candida albicans [2]): 0.0625 µg/mL (≈ 0.131 µM)
SMILES: C[C@@H](c1cn(-c2ccc(Br)cc2)nn1)[C@](O)(Cn1cncn1)c1ccc(F)cc1F

- MIC (Cryptococcus neoformans [1]): 0.0625 µg/mL (≈ 0.158 µM)
- MIC (Aspergillus fumigatus): 4 µg/mL (≈ 10.1 µM)
- MIC (Candida albicans [2]): 0.0625 µg/mL (≈ 0.158 µM)
SMILES: C[C@@H](c1cn(-c2ccccc2)nn1)[C@](O)(Cn1cncn1)c1ccc(F)cc1F

- MIC (Cryptococcus neoformans [1]): 0.0625 µg/mL (≈ 0.139 µM)
- MIC (Aspergillus fumigatus): 4 µg/mL (≈ 8.91 µM)
- MIC (Candida albicans [2]): 0.0625 µg/mL (≈ 0.139 µM)
SMILES: C[C@@H](c1cn(-c2ccc(Cl)cc2F)nn1)[C@](O)(Cn1cncn1)c1cc(F)ccc1F

- MIC (Cryptococcus neoformans [1]): 0.125 µg/mL (≈ 0.26 µM)
- MIC (Aspergillus fumigatus): 32 µg/mL (≈ 66.6 µM)
- MIC (Candida albicans [2]): 0.0625 µg/mL (≈ 0.13 µM)
SMILES: C[C@@H](c1cn(-c2ccc(OC(F)(F)F)cc2)nn1)[C@](O)(Cn1cncn1)c1cc(F)ccc1F

- MIC (Cryptococcus neoformans [1]): 0.0625 µg/mL (≈ 0.139 µM)
- MIC (Aspergillus fumigatus): 16 µg/mL (≈ 35.6 µM)
- MIC (Candida albicans [2]): 0.0313 µg/mL (≈ 0.0697 µM)
SMILES: C[C@@H](c1cn(-c2ccc(Cl)c(F)c2)nn1)[C@](O)(Cn1cncn1)c1ccc(F)cc1F

- MIC (Cryptococcus neoformans [1]): 0.125 µg/mL (≈ 0.27 µM)
- MIC (Aspergillus fumigatus): 8 µg/mL (≈ 17.3 µM)
- MIC (Candida albicans [2]): 0.0313 µg/mL (≈ 0.0677 µM)
SMILES: C[C@@H](c1cn(-c2ccc(OC(F)F)cc2)nn1)[C@](O)(Cn1cncn1)c1ccc(F)cc1F

- MIC (Cryptococcus neoformans [1]): 0.0625 µg/mL (≈ 0.107 µM)
- MIC (Aspergillus fumigatus): 8 µg/mL (≈ 13.6 µM)
- MIC (Candida albicans [2]): 0.25 µg/mL (≈ 0.426 µM)
SMILES: C[C@@H](c1cn(-c2ccc(OCc3ccc(OC(F)(F)F)cc3)cc2)nn1)[C@](O)(Cn1cncn1)c1ccc(F)cc1F

SMILES: CC[C@@H]([C@H](C)O)n1ncn(-c2ccc(N3CCN(c4ccc(OC[C@@H]5CO[C@@](Cn6cncn6)(c6ccc(F)cc6F)C5)cc4)CC3)cc2)c1=O [POSACONAZOLE]
- MIC (Pichia kudriavzevii [7]): 2 µg/mL (≈ 2.85 µM)
- MIC (Candida parapsilosis [8]): 1 µg/mL (≈ 1.43 µM)
- MIC ([Candida] auris [9]): ≤ 0.125 µg/mL
- MIC (Candida parapsilosis [10]): 0.5 µg/mL (≈ 0.713 µM)
- MIC ([Candida] auris [11]): ≤ 0.125 µg/mL
- viability at 24 h, 64 ug/ml (in vitro): 68.3%
- MIC (Candida albicans [12]): 0.5 µg/mL (≈ 0.713 µM)
- viability at 24 h, 64 ug/ml [13]: 115%
- MIC (Candida parapsilosis [14]): 0.5 µg/mL (≈ 0.713 µM)
- MIC (Candida albicans [15]): > 64 µg/mL
- MIC (Candida tropicalis [16]): > 16 µg/mL
- MIC ([Candida] auris [17]): ≤ 0.125 µg/mL
- MIC (Cryptococcus neoformans [1]): 0.5 µg/mL (≈ 0.713 µM)
- MIC (Aspergillus fumigatus): 0.5 µg/mL (≈ 0.713 µM)
- MIC ([Candida] auris [18]): ≤ 0.125 µg/mL
- MIC (Candida albicans [2]): 0.125 µg/mL (≈ 0.178 µM)
- MIC (Candida albicans [19]): > 64 µg/mL
- MIC (Pichia kudriavzevii [20]): 2 µg/mL (≈ 2.85 µM)
- MIC (Candida albicans [21]): 0.5 µg/mL (≈ 0.713 µM)
- MIC (Candida tropicalis [22]): > 16 µg/mL
- MIC (Candida albicans [23]): > 16 µg/mL
- MIC (Pichia kudriavzevii [24]): 2 µg/mL (≈ 2.85 µM)
- MIC (Candida albicans [25]): > 64 µg/mL
- MIC (Candida albicans [26]): > 64 µg/mL
- MIC (Nakaseomyces glabratus [27]): 2 µg/mL (≈ 2.85 µM)
- MIC (Pichia kudriavzevii [28]): 2 µg/mL (≈ 2.85 µM)
